In the supplement of paper PMC5908809:

What was measured:
[1] = system: normal NK cells expanded with K562-aAPC; experiment: percent inhibition of viability; higher = more inhibition; conditions: 72 h, IL-2 2.5 ng/mL
Protocol: (§1)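 Drug sensitivity and resistance testing on K562-aAPC-expanded normal NK cells: 5 concentrations (10-fold steps over a 10,000-fold range), 72 h at 37 °C, viability by CellTiter-Glo normalised to DMSO and benzethonium chloride controls; DSS from the fitted curve.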

DERL-7 (IL-2 2.5 ng/mL) [2] = experiment: as above; conditions: 72 h
IMC-1 (IL-2 20 ng/mL) [3] = experiment: as above; conditions: 72 h
KAI3 (IL-2 2.5 ng/mL) [4] = experiment: as above; conditions: 72 h
KHYG-1 (IL-2 2.5 ng/mL) [5] = experiment: as above; conditions: 72 h
NK-92 (IL-2 2.5 ng/mL) [6] = experiment: as above; conditions: 72 h
NK-YS (IL-2 2.5 ng/mL) [7] = experiment: as above; conditions: 72 h
NKL (IL-2 2.5 ng/mL) [8] = experiment: as above; conditions: 72 h
SNK-6 (IL-2 2.5 ng/mL) [9] = experiment: as above; conditions: 72 h
YT (IL-2 2.5 ng/mL) [10] = experiment: as above; conditions: 72 h
[11] = system: normal primary NK cells, pool 1 (3 donors) (IL-2 2.5 ng/mL); experiment: as above; conditions: 72 h
[12] = system: normal primary NK cells, pool 1 (3 donors), resting (IL-2 0 ng/mL); experiment: as above; conditions: 72 h
[13] = system: normal primary NK cells, pool 2 (3 donors) (IL-2 2.5 ng/mL); experiment: as above; conditions: 72 h
[14] = system: normal primary NK cells, pool 3 (3 donors) (IL-2 2.5 ng/mL); experiment: as above; conditions: 72 h
[15] = system: normal NK cells expanded with K562-aAPC; experiment: drug sensitivity score (DSS) (DSS units); higher = more sensitive; extreme values may be limits of the assay; conditions: 72 h; IL-2 2.5 ng/mL
Protocol: as §1

DERL-7 (IL-2 2.5 ng/mL) [16] = experiment: as above; conditions: 72 h
IMC-1 (IL-2 20 ng/mL) [17] = experiment: as above; conditions: 72 h
KAI3 (IL-2 2.5 ng/mL) [18] = experiment: as above; conditions: 72 h
KHYG-1 (IL-2 2.5 ng/mL) [19] = experiment: as above; conditions: 72 h
NK-92 (IL-2 2.5 ng/mL) [20] = experiment: as above; conditions: 72 h
NK-YS (IL-2 2.5 ng/mL) [21] = experiment: as above; conditions: 72 h
NKL (IL-2 2.5 ng/mL) [22] = experiment: as above; conditions: 72 h
SNK-6 (IL-2 2.5 ng/mL) [23] = experiment: as above; conditions: 72 h
YT (IL-2 2.5 ng/mL) [24] = experiment: as above; conditions: 72 h
[25] = system: normal primary NK cells, pool 1 (3 donors) (IL-2 2.5 ng/mL); experiment: as above; conditions: 72 h
[26] = system: normal primary NK cells, pool 1 (3 donors), resting (IL-2 0 ng/mL); experiment: as above; conditions: 72 h
[27] = system: normal primary NK cells, pool 2 (3 donors) (IL-2 2.5 ng/mL); experiment: as above; conditions: 72 h
[28] = system: normal primary NK cells, pool 3 (3 donors) (IL-2 2.5 ng/mL); experiment: as above; conditions: 72 h

CS(=O)(=O)OCCCCOS(C)(=O)=O [Busulfan] (max concentration tested 100000 nM)
percent inhibition of viability [%]
Conditions | 10 nM | 100 nM | 1000 nM | 10000 nM | 100000 nM
DERL-7 (IL-2 2.5 ng/mL) [2] | -0.3 | 0.71 | -1.86 | -6.29 | 37.3
IMC-1 (IL-2 20 ng/mL) [3] | -7.58 | 1.98 | -0.95 | 5.86 | 97.7
KAI3 (IL-2 2.5 ng/mL) [4] | -3.8 | 4.61 | -6.45 | 7.92 | 92.1
KHYG-1 (IL-2 2.5 ng/mL) [5] | -5.97 | 2.86 | -2.89 | 5.78 | 101
NK-92 (IL-2 2.5 ng/mL) [6] | -12.9 | 1.55 | 8.88 | -9.97 | 98.6
NK-YS (IL-2 2.5 ng/mL) [7] | -7.3 | -2.96 | -5.68 | 2.67 | 93.2
NKL (IL-2 2.5 ng/mL) [8] | -14.8 | -1.78 | -0.6 | 5.56 | 99.4
SNK-6 (IL-2 2.5 ng/mL) [9] | 6.87 | 18.8 | 18.7 | 29.4 | 98
YT (IL-2 2.5 ng/mL) [10] | -5.22 | 1.87 | -2.46 | -4.04 | 47.7
[1] | -2.86 | 1.34 | 1.8 | 12.1 | 11.6
[11] | 0.77 | -7.48 | -4.93 | -16 | -3.43
[12] | 9.92 | -5.43 | 4.09 | -28.6 | -11.5
[13] | -6.89 | -5.87 | 7.32 | -4.08 | 50.9
[14] | 0.71 | -2.78 | 10.5 | -3.81 | 35.4

Conditions | drug sensitivity score
DERL-7 (IL-2 2.5 ng/mL) [16] | 1.44
IMC-1 (IL-2 20 ng/mL) [17] | 6.28
KAI3 (IL-2 2.5 ng/mL) [18] | 6.36
KHYG-1 (IL-2 2.5 ng/mL) [19] | 6.48
NK-92 (IL-2 2.5 ng/mL) [20] | 4.82
NK-YS (IL-2 2.5 ng/mL) [21] | 5.53
NKL (IL-2 2.5 ng/mL) [22] | 6.32
SNK-6 (IL-2 2.5 ng/mL) [23] | 8.82
YT (IL-2 2.5 ng/mL) [24] | 2.18
[15] | 0.67
[25] | 0
[26] | 0
[27] | 2.38
[28] | 1.42

O=C(O)CCCCC(CCSCc1ccccc1)SCc1ccccc1 (configuration not stated) [CPI-613] (max concentration tested 10000 nM)
percent inhibition of viability [%]
Conditions | 1 nM | 10 nM | 100 nM | 1000 nM | 10000 nM
DERL-7 (IL-2 2.5 ng/mL) [2] | 0.05 | -0.43 | -0.74 | -7.69 | 0.16
IMC-1 (IL-2 20 ng/mL) [3] | -2.98 | -1.62 | -2.71 | -2.84 | 9.03
KAI3 (IL-2 2.5 ng/mL) [4] | 2.88 | -5.51 | 1.38 | 3.07 | 13.6
KHYG-1 (IL-2 2.5 ng/mL) [5] | -0.71 | -6.53 | -1.09 | 2.22 | 14.3
NK-92 (IL-2 2.5 ng/mL) [6] | -12.9 | -8.45 | -13 | 17.1 | 13.7
NK-YS (IL-2 2.5 ng/mL) [7] | -0.06 | -3.64 | -3.63 | 4.79 | 12.5
NKL (IL-2 2.5 ng/mL) [8] | -9.11 | -4.72 | -5.85 | 9.97 | -1.95
SNK-6 (IL-2 2.5 ng/mL) [9] | 2.68 | 9.26 | 7.02 | 3.27 | 15.4
YT (IL-2 2.5 ng/mL) [10] | -4.82 | -6.21 | -4.86 | 4.79 | 13.6
[1] | -7.1 | -6.01 | -4.94 | -0.06 | 8.33
[11] | -0.75 | 13.6 | 2.91 | 3.14 | 0.88
[12] | -1.85 | 9.03 | 13.2 | 15.7 | 14.9
[13] | -4.63 | 4.64 | 5.89 | 2.06 | 9.6
[14] | -7.27 | -0.78 | 1.21 | 3.31 | 2.34

Conditions | drug sensitivity score
DERL-7 (IL-2 2.5 ng/mL) [16] | 0
IMC-1 (IL-2 20 ng/mL) [17] | 0
KAI3 (IL-2 2.5 ng/mL) [18] | 0.36
KHYG-1 (IL-2 2.5 ng/mL) [19] | 0.38
NK-92 (IL-2 2.5 ng/mL) [20] | 1.68
NK-YS (IL-2 2.5 ng/mL) [21] | 0.31
NKL (IL-2 2.5 ng/mL) [22] | 0
SNK-6 (IL-2 2.5 ng/mL) [23] | 0.07
YT (IL-2 2.5 ng/mL) [24] | 0.45
[15] | 0
[25] | 0
[26] | 3.6
[27] | 0
[28] | 0

C#Cc1cccc(Nc2ncnc3cc(OC)c(OCCCCCCC(=O)NO)cc23)c1 [CUDC-101] (max concentration tested 10000 nM)
percent inhibition of viability [%]
Conditions | 1 nM | 10 nM | 100 nM | 1000 nM | 10000 nM
DERL-7 (IL-2 2.5 ng/mL) [2] | -3.07 | -2.96 | 19.3 | 100 | 101
IMC-1 (IL-2 20 ng/mL) [3] | -4.07 | -5.13 | -1.06 | 48.9 | 101
KAI3 (IL-2 2.5 ng/mL) [4] | -3.15 | 0.88 | 27.8 | 77.2 | 105
KHYG-1 (IL-2 2.5 ng/mL) [5] | 1.82 | 3.01 | 36.4 | 99.1 | 106
NK-92 (IL-2 2.5 ng/mL) [6] | 9.73 | -1.07 | 19.2 | 85.7 | 105
NK-YS (IL-2 2.5 ng/mL) [7] | -4.37 | 0.36 | 0.68 | 57.3 | 105
NKL (IL-2 2.5 ng/mL) [8] | -15.6 | -12.1 | 1.83 | 90.5 | 108
SNK-6 (IL-2 2.5 ng/mL) [9] | 11.7 | 10.8 | 24.7 | 78.1 | 100
YT (IL-2 2.5 ng/mL) [10] | 0.23 | 0.94 | 9.37 | 95.4 | 106
[1] | -2.26 | 1.39 | 1.83 | 75.4 | 101
[11] | -3.28 | -4.06 | 12.8 | 88.8 | 98.8
[12] | 10.4 | 0.86 | 30.2 | 78.6 | 92.4
[13] | -9.31 | -5.49 | 9.37 | 84.5 | 97
[14] | -12 | 1.9 | 2.2 | 82.8 | 99.5

Conditions | drug sensitivity score
DERL-7 (IL-2 2.5 ng/mL) [16] | 21.1
IMC-1 (IL-2 20 ng/mL) [17] | 11.6
KAI3 (IL-2 2.5 ng/mL) [18] | 17.9
KHYG-1 (IL-2 2.5 ng/mL) [19] | 22.6
NK-92 (IL-2 2.5 ng/mL) [20] | 18.1
NK-YS (IL-2 2.5 ng/mL) [21] | 12.4
NKL (IL-2 2.5 ng/mL) [22] | 16.5
SNK-6 (IL-2 2.5 ng/mL) [23] | 17.6
YT (IL-2 2.5 ng/mL) [24] | 18.8
[15] | 14.3
[25] | 17.9
[26] | 18.1
[27] | 16.7
[28] | 15.3
